Calls of active or inactive are those of the source.
How the values were obtained:
[1] = NIH-3T3 fibroblast cytotoxicity, dose response, cytotoxicity control, cell-based, fluorescence, Alamar Blue, secondary assay (AID 2327); format: functional;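 note: NIH-3T3 mouse fibroblasts cultured with fluconazole at 8 µg/mL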
[2] = C. albicans growth with fluconazole, confirmation, fluorescence, retest (AID 2467); format: functional, cell-based
[3] = molecular target: T1, COUP transcription factor 2 (Homo sapiens, UniProt P24468); assay: Luminescence-based cell-based high throughput dose response assay to identify inhibitors of COUP-TFII (NR2F2).; format: functional;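 note: HEK293 cells transiently cotransfected with COUP-TFII expression vector and reporter; luciferase reporter luminescence driven by COUP-TFII from the pX2-168 reporter plasmid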
T1 sequence (P24468 whole entry): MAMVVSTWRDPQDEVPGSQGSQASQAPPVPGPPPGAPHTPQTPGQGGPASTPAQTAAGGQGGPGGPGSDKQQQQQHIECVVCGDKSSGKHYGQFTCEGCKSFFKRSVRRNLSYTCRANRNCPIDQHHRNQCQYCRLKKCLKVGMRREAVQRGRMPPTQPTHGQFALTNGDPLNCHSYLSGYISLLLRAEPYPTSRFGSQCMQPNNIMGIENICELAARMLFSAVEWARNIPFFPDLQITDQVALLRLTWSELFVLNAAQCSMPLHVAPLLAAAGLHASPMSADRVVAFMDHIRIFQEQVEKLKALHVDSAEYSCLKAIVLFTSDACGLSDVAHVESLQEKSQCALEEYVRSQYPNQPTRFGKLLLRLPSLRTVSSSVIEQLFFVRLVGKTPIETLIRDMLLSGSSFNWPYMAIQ

Protein Wnt-3a = Protein Wnt-3a (Mus musculus, UniProt P27467); assay: Wnt3a-driven reporter signaling inhibition, dose response, selectivity assay for Gli-SUFU antagonist project, Wnt-LIGHT cells, luminescence (AID 651570); format: functional; details: read-out: IC50_Mean;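 note: Wnt-LIGHT reporter cells stimulated with conditioned medium from Wnt3a-producing cells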
Chain of Protein Wnt-3a (P27467 whole entry): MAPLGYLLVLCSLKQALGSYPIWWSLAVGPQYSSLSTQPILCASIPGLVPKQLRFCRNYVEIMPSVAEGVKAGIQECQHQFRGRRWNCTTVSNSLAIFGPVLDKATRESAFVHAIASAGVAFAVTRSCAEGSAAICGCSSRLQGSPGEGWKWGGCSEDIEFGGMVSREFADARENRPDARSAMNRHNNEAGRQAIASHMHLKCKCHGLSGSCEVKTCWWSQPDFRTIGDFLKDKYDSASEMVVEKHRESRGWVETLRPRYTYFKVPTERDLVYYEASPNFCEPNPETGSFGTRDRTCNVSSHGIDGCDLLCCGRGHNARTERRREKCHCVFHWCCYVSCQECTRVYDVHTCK

[4] = molecular target: Nuclear receptor subfamily 5 group A member 2 (Homo sapiens, UniProt O00482); format: functional, cell-based;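 note: HEK293T cells transfected with LRH-1 and a StAR promoter luciferase reporter; potency for inhibitors that lower LRH-1 driven reporter light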
Chain of Nuclear receptor subfamily 5 group A member 2 (O00482 whole entry): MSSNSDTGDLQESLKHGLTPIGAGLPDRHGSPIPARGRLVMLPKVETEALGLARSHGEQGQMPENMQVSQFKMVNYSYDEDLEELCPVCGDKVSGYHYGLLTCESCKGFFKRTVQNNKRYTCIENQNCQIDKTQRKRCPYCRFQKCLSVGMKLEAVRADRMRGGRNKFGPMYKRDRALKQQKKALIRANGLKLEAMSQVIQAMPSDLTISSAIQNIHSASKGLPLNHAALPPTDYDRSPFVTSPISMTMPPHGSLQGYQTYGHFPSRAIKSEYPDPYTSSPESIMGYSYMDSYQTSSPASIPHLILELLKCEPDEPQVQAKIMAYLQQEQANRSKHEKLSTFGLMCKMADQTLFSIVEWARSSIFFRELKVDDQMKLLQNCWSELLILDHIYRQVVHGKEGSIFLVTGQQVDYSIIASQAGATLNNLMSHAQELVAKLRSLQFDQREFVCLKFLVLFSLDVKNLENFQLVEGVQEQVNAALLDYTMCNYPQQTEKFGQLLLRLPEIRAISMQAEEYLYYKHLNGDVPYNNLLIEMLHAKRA

Steroidogenic factor 1 = Steroidogenic factor 1 (Homo sapiens, UniProt Q13285); assay: Counterscreen for inverse agonists of the liver receptor homolog-1 (LRH-1; NR5A2): Luminescence-based cell-based high throughput dose response assay to identify inverse agonists of the Steroidogenic Factor 1 Nuclear Receptor (SF1; NR5A1).; format: functional
Chain of Steroidogenic factor 1 (Q13285 whole entry): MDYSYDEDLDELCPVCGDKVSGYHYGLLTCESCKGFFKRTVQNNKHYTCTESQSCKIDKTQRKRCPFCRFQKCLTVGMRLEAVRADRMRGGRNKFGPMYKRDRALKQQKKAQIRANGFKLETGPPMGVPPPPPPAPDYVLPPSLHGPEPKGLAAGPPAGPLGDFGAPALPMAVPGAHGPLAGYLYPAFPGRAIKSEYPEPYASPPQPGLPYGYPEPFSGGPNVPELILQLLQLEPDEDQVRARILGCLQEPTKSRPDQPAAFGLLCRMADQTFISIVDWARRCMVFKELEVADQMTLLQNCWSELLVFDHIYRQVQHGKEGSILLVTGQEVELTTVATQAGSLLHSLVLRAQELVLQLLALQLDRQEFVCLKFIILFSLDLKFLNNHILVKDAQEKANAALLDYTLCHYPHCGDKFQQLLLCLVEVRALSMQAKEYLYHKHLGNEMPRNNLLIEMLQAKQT

[5] = StAR promoter reporter inhibition counter-screen, dose response, counter-screen for LRH-1 inverse agonist project, cell-based, luminescence, luciferase reporter (AID 651969); format: functional
[6] = ARNT/TACC3 interaction disruptors, potency, confirmation, biochemical, AlphaScreen, cherry-picked samples (AID 651703); format: functional, Homo sapiens;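 note: His-tagged ARNT PAS-B domain paired with GST-TACC3 E629A dimer coactivator fragment; potency of inhibitors that break up the complex and lower AlphaScreen signal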
[7] = molecular target: 5-hydroxytryptamine receptor 2A (Mus musculus, UniProt P35363); format: functional, cell-based;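 note: CHO-K1 cells with tagged receptor and beta-arrestin; agonist potency measured as compound-induced activation of the receptor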
Chain of 5-hydroxytryptamine receptor 2A (P35363 whole entry): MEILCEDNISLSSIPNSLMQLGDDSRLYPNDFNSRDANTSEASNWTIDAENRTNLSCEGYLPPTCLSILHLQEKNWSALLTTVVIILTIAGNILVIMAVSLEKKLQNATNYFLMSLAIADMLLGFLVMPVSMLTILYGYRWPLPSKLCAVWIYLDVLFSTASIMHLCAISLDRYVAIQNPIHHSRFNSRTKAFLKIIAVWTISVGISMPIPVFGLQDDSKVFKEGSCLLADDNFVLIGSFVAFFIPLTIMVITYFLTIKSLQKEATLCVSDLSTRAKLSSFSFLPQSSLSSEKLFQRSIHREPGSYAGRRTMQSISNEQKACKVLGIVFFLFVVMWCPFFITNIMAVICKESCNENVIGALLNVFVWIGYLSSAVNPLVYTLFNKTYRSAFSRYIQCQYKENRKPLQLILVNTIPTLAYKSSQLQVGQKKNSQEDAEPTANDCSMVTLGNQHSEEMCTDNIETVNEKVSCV

Mu-type opioid receptor = Mu-type opioid receptor (Homo sapiens, UniProt P35372); format: functional, cell-based;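 note: U2OS cells with beta-arrestin recruitment to OPRM1 by beta-gal complementation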
Chain of Mu-type opioid receptor (P35372 whole entry): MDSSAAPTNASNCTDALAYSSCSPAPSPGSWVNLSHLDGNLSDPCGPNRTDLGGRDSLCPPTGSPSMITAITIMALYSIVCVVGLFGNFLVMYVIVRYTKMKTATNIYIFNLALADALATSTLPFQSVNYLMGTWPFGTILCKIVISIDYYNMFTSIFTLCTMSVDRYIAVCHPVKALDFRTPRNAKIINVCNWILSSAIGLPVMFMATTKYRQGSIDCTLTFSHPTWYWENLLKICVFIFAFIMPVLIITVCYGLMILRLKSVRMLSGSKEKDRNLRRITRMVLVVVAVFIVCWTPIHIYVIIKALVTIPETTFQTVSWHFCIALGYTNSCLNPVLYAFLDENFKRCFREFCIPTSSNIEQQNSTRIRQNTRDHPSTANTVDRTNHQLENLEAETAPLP

Beta Lactamase = Beta Lactamase (Pseudomonas aeruginosa, UniProt Q932Y6); assay: beta-lactamase reporter inhibitor potency, dose response, artefact control for NOD2-RIPK2 interaction inhibitor project, BLA reporter cells, FRET fluorescence (AID 651552); format: functional, cell-based
Chain of Beta Lactamase (Q932Y6 whole entry): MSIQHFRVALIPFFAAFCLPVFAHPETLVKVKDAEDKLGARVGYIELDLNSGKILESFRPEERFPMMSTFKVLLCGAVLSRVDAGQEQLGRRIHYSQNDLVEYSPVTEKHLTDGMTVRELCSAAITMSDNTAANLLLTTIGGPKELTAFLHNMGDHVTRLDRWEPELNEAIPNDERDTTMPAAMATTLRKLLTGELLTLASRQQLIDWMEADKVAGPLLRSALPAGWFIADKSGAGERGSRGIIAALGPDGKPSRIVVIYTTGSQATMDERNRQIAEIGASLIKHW

[8] = growth suppression of PTEN-null colon cells, dose response, cell-based, HCT116 PTEN knockout (AID 1047); format: functional;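 note: HCT116 colon tumor cells with PTEN knocked out; cells exposed to compound for 60 hours before readout; potency for loss of cell viability measured by luminescence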
Vero = assay: cells; format: functional; details: Chlorocebus sabaeus
[9] = Fluorescence-based cell-based high throughput dose response assay for inhibitors of the interaction of nucleotide-binding oligomerization domain containing 2 (NOD2) and the receptor-interacting serine-threonine kinase 2 (RIPK2).; format: functional; details: Homo sapiens
[10] = molecular target: G-protein coupled receptor 55 (Homo sapiens, UniProt Q9Y2T6); assay: GPR55 agonists via beta-arrestin recruitment, primary screen, imaging, U2OS cells, beta-arrestin-GFP redistribution (AID 1961); format: functional
Chain of G-protein coupled receptor 55 (Q9Y2T6 whole entry): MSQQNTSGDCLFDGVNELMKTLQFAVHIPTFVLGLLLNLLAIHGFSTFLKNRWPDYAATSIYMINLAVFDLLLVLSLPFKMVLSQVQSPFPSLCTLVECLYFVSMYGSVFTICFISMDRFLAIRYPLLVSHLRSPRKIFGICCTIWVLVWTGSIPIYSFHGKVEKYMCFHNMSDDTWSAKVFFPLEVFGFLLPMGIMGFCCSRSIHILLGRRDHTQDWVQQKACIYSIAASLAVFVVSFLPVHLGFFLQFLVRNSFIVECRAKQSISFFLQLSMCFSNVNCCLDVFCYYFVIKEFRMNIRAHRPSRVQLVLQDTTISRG

[11] = growth suppression of beta-catenin-knockout colon cells, dose response, cell-based, HCT116, human colon tumor (AID 1045); format: functional;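 note: HCT116 colon tumor cells with beta catenin knocked out; cells exposed to compound for 60 hours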
[12] = molecular target: Low molecular weight phosphotyrosine protein phosphatase (Homo sapiens, UniProt P24666); format: functional; details: read-out: IC50_Mean
Chain of Low molecular weight phosphotyrosine protein phosphatase (P24666 whole entry, the tested form may be a part): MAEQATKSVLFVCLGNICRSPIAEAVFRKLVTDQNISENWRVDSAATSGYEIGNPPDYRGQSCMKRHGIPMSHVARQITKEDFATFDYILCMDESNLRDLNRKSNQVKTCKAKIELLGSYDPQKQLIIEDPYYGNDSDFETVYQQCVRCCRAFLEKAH

[13] = molecular target: T2, Carboxy-terminal domain RNA polymerase II polypeptide A small phosphatase 1 (Homo sapiens, UniProt Q9GZU7); assay: inhibitors of CTDSP1, concentration-response testing, biochemical assay, absorbance-based, actives from ultra-high-throughput screening (AID 540297); format: functional
T2 sequence (Q9GZU7 whole entry): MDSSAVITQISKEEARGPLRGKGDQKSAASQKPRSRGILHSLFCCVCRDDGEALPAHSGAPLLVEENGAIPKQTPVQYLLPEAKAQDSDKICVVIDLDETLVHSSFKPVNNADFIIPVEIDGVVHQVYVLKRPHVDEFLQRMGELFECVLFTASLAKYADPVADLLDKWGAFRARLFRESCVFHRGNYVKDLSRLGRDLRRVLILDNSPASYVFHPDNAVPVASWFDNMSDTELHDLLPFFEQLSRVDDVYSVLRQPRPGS

Beta-lactamase [14] = molecular target: T3, Beta-lactamase (Pseudomonas aeruginosa, UniProt Q79MP6); assay: […] counterscreen for selective VIM-2 inhibitors: dose response biochemical high throughput screening assay to identify inhibitors of IMP-1 metallo-beta-lactamase.
T3 sequence (Q79MP6 whole entry): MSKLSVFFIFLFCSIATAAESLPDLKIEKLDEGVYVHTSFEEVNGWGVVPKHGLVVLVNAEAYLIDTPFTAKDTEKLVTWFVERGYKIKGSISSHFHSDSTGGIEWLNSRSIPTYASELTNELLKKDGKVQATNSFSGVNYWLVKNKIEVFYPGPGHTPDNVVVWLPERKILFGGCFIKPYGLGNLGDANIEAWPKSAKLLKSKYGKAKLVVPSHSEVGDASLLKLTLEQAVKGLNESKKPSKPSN

Beta-lactamase [15] = molecular target: T3, Beta-lactamase; assay: IMP-1 metallo-beta-lactamase inhibitors, dose response, selectivity assay for VIM-2 inhibitor project, biochemical, epi-absorbance (AID 1920)
Beta-lactamase [16] = molecular target: Beta-lactamase (Salmonella choleraesuis (strain SC-B67), UniProt Q5J463); assay: Epi-absorbance-based counterscreen for selective VIM-2 inhibitors: dose response biochemical high throughput screening assay to identify inhibitors of TEM-1 serine-beta-lactamase.
Chain of Beta-lactamase (Salmonella choleraesuis (strain SC-B67), UniProt Q5J463) (Q5J463 whole entry): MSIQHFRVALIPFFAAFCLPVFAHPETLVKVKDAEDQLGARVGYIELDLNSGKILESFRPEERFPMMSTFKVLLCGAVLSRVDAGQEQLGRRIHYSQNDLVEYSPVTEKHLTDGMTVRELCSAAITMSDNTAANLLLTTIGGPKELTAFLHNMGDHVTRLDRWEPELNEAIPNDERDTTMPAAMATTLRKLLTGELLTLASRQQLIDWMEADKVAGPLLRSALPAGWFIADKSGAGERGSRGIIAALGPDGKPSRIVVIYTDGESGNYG

[17] = molecular target: Mitochondrial peptide methionine sulfoxide reductase (Bos taurus, UniProt P54149); format: functional;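 note: absorbance read-out, biochemical high-throughput dose-response screen for MsrA inhibitors, confirmatory; recombinant bovine MsrA coupled to E. coli TrxB with NADPH and selenocystamine; potency is for inhibitors of MsrA activity on DMSO substrate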
Chain of Mitochondrial peptide methionine sulfoxide reductase (P54149 whole entry): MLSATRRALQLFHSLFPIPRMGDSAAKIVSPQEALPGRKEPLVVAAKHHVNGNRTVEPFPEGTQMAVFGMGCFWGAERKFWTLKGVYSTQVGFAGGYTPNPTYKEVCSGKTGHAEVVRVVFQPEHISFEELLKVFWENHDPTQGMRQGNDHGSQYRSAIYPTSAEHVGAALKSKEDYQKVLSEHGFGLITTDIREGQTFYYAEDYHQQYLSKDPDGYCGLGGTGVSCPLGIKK

## Cc1nn(C)c(C)c1/C=C/C(=O)c1ccc(Cl)cc1Cl
[1]
  EC50: 84.9 µM (inconclusive)
[2]
  EC50: 3.56 µM (active)
[3]
  IC50: 14.8 µM (inactive)
Protein Wnt-3a
  IC50: 2.49 µM (active)

## N=c1sccn1CC(=O)Nc1ccc(S(N)(=O)=O)cc1
[4]
  IC50: 2.32 µM (active)
Steroidogenic factor 1
  IC50: 3.81 µM (active)
[5]
  IC50: 35.9 µM (inactive)

## Cc1cccc(NC(=O)C(C)N2CC=C(c3ccccc3)CC2)c1 (configuration not stated)
[6]
  AC50: 88.4 µM (active)

## OC(COc1ccc2cc(Br)ccc2c1)CN1CCN(c2ccccn2)CC1 (configuration not stated)
[7]
  EC50: 0.903 µM (active)
Mu-type opioid receptor
  EC50: 92.5 µM (inactive)

## N#Cc1ccccc1Cn1cc(/C=C/[N+](=O)[O-])c2ccccc21
Beta Lactamase
  IC50: 24.4 µM (inactive)
[8]
  EC50: 17.8 µM (active)
Vero
  CC50: 8.92 µM (active)
[9]
  IC50: 10.3 µM (inactive)
[10]
  EC50: 3.11 µM (active)
[11]
  EC50: 18 µM (active)

## O=C(Nc1nc2ccsc2c(=O)s1)c1ccc(Cl)cc1
[12]
  IC50: 39.3 µM (inactive)
[13]
  IC50: 5.43 µM (active)

## O=C(O)c1ccccc1C(=O)c1cccc2ccccc12
Beta-lactamase [14]
  IC50: > 59.6 µM (inactive)
Beta-lactamase [15]
  IC50: > 59.6 µM (inactive)
Beta-lactamase [16]
  IC50: > 59.6 µM (inactive)

## O=C(C(=O)c1ccc(O)c(O)c1)c1ccc(O)c(O)c1
[17]
  IC50: 112 µM (inactive)

Source: ChEMBL document CHEMBL1201862, “PubChem BioAssay data set” (2004)
